Measurements from patent publication US7322965B2, “Infection-resistant medical devices” (priority 2002, dated 2008).
Values after ≈ are worked out from the molar mass of the structure shown. Like-named read-outs stand apart in the source and are kept apart here.

Assays:
[1] = test system: S. epidermidis UC-20207; assay: Determination of minimum inhibitory concentration (microdilution); assay type: cell-based; settings: Staphylococcus epidermidis, UC20207, 18 h, read-out: MIC (minimum inhibitory concentration)
[2] = test system: bacterial adherence; settings: subinhibitory concentrations; other investigators; cited from earlier work
[3] = test system: S. epidermidis UC-20207; assay: Time course adherence assay (prophylactic and delayed treatment); assay type: cell-based; settings: for inhibition at 1 µg/mL / inhibition at 2 µg/mL / inhibition at 4 µg/mL / inhibition at 8 µg/mL: Staphylococcus epidermidis, read-out: Percent inhibition of bacterial adherence relative to controls; for Mean OD550: UC-20207
Experimental: (§1) Drug effects on bacterial adherence were measured 18 hours after treatment initiation using a quantitative spectrophotometric assay.
(§2) Relative inhibition of adherence was expressed by the following equation: (OD of control well−OD of treated well/OD of control well)×100, where OD is the mean optical density of six replicate wells from two separate experiments (three replicates per experiment). Control was defined as infected, drug-free cultures.
(§3) The primary efficacy variable in this study was the measurement of adherent bacteria to polystyrene surfaces after 18 hours to 24 hours of growth. To determine whether statistically significant differences existed between treatments (4×MIC, 2×MIC, MIC, and ½ MIC) compared with the infected-nontreated controls, multiple comparisons according to Dunnett's test (Montgomery, Design and Analysis of Experiments (1991)) were applied for each clinical strain. Differences were considered statistically significant when p<0.05.

[4] = test system: S. epidermidis UC-20208; assay: as above; assay type: cell-based; settings: for inhibition at 1 µg/mL / inhibition at 2 µg/mL / inhibition at 4 µg/mL / inhibition at 8 µg/mL: Staphylococcus epidermidis, read-out: Percent inhibition of bacterial adherence relative to controls; for Mean OD550: UC-20208
Experimental: as §1, §2, §3

[5] = 1.0 μg/ml, treatment 0 h post-infection
[6] = 2.0 μg/ml (MIC), treatment 0 h post-infection
[7] = 2.0 μg/ml (MIC), treatment 2 h post-infection
[8] = 2.0 μg/ml (MIC), treatment 4 h post-infection
[9] = 4.0 μg/ml, treatment 0 h post-infection
[10] = 4.0 μg/ml, treatment 2 h post-infection
[11] = 4.0 μg/ml, treatment 4 h post-infection
[12] = 8.0 μg/ml, treatment 0 h post-infection
[13] = 8.0 μg/ml, treatment 2 h post-infection
[14] = 8.0 μg/ml, treatment 4 h post-infection

For `CN[C@H](CC(C)C)C(=O)N[C@H]1C(=O)N[C@@H](CC(N)=O)C(=O)N[C@H]2C(=O)N[C@H]3C(=O)N[C@H](C(=O)N[C@H](C(=O)O)c4cc(O)cc(O)c4-c4cc3ccc4O)[C@H](O)c3ccc(c(Cl)c3)Oc3cc2cc(c3O[C@@H]2O[C@H](CO)[C@@H](O)[C@H](O)[C@H]2O[C@H]2C[C@](C)(N)[C@H](O)[C@H](C)O2)Oc2ccc(cc2Cl)[C@H]1O` [Vancomycin], the MIC [1] is given as 2 µg/mL (≈ 1.38 µM), the “activity against bacterial adherence” value [2] is given as “minimal or no activity against bacterial adherence” and the inhibition at 1 µg/mL ([3]; UC20207, 0 h) is given as 0%. It also gave an inhibition at 2 µg/mL ([3]; UC20207, 0 h) of 99.8%, an inhibition at 4 µg/mL ([3]; UC20207, 0 h) of 99.9% and an inhibition at 8 µg/mL ([3]; UC20207, 0 h) of 99.9%. It also gave an inhibition at 1 µg/mL ([3]; UC20207, 2 h) of 0%, an inhibition at 2 µg/mL ([3]; UC20207, 2 h) of 99.4% and an inhibition at 4 µg/mL ([3]; UC20207, 2 h) of 99.8%. It also gave an inhibition at 8 µg/mL ([3]; UC20207, 2 h) of 99.7%, an inhibition at 1 µg/mL ([3]; UC20207, 4 h) of 0% and an inhibition at 2 µg/mL ([3]; UC20207, 4 h) of 3.6%. For the same compound, the inhibition at 4 µg/mL ([3]; UC20207, 4 h) was 98.8%, the inhibition at 8 µg/mL ([3]; UC20207, 4 h) was 99% and the inhibition at 1 µg/mL ([3]; UC20207, 6 h) was 0%. It also gave an inhibition at 2 µg/mL ([3]; UC20207, 6 h) of 0%, an inhibition at 4 µg/mL ([3]; UC20207, 6 h) of 0% and an inhibition at 8 µg/mL ([3]; UC20207, 6 h) of 88.5%. The “Mean OD550” value [3, 5] was 2.389 ± 0.175, the “Mean OD550” value [3, 6] was 0.005 ± 0.004 and the “Mean OD550” value [3, 7] was 0.014 ± 0.010. The “Mean OD550” value [3, 8] was 2.693 ± 0.527, the “Mean OD550” value [3, 9] was 0.003 ± 0.002 and the “Mean OD550” value [3, 10] was 0.006 ± 0.003. For the same compound, the “Mean OD550” value [3, 11] was 0.033 ± 0.010, the “Mean OD550” value [3, 12] was 0.003 ± 0.002 and the “Mean OD550” value [3, 13] was 0.007 ± 0.003. For the same compound, the “Mean OD550” value [3, 14] was 0.028 ± 0.014, the “Mean OD550” value ([3]; 8.0 μg/ml, treatment 6 h post-infection) was 0.326 ± 0.046 and the inhibition at 1 µg/mL ([4]; UC20208, 0 h) was 0%. It also gave an inhibition at 2 µg/mL ([4]; UC20208, 0 h) of 99.9%, an inhibition at 4 µg/mL ([4]; UC20208, 0 h) of 99.9% and an inhibition at 8 µg/mL ([4]; UC20208, 0 h) of 99.9%. It also gave an inhibition at 1 µg/mL ([4]; UC20208, 2 h) of 0%, an inhibition at 2 µg/mL ([4]; UC20208, 2 h) of 99.1% and an inhibition at 4 µg/mL ([4]; UC20208, 2 h) of 100%. For the same compound, the inhibition at 8 µg/mL ([4]; UC20208, 2 h) was 100%, the inhibition at 1 µg/mL ([4]; UC20208, 4 h) was 0% and the inhibition at 2 µg/mL ([4]; UC20208, 4 h) was 0%. It also gave an inhibition at 4 µg/mL ([4]; UC20208, 4 h) of 85.1%, an inhibition at 8 µg/mL ([4]; UC20208, 4 h) of 99.6% and an inhibition at 1 µg/mL ([4]; UC20208, 6 h) of 0%. It also gave an inhibition at 2 µg/mL ([4]; UC20208, 6 h) of 0%, an inhibition at 4 µg/mL ([4]; UC20208, 6 h) of 0% and an inhibition at 8 µg/mL ([4]; UC20208, 6 h) of 0%. For the same compound, the “Mean OD550” value [4, 5] was 1.865 ± 0.309, the “Mean OD550” value ([4]; 1.0 μg/ml, treatment 2 h post-infection) was 1.865 ± 0.435 and the “Mean OD550” value ([4]; 1.0 μg/ml, treatment 4 h post-infection) was 1.752 ± 0.566. The “Mean OD550” value ([4]; 1.0 μg/ml, treatment 6 h post-infection) was 1.127 ± 0.463, the “Mean OD550” value [4, 6] was 0.001 ± 0.000 and the “Mean OD550” value [4, 7] was 0.014 ± 0.036. The “Mean OD550” value [4, 8] was 2.414 ± 0.558, the “Mean OD550” value ([4]; 2.0 μg/ml (MIC), treatment 6 h post-infection) was 1.281 ± 0.555 and the “Mean OD550” value [4, 9] was 0.001 ± 0.001. For the same compound, the “Mean OD550” value [4, 10] was 0.000 ± 0.001, the “Mean OD550” value [4, 11] was 0.239 ± 0.261 and the “Mean OD550” value ([4]; 4.0 μg/ml, treatment 6 h post-infection) was 1.555 ± 0.206. The “Mean OD550” value [4, 12] was 0.001 ± 0.001, the “Mean OD550” value [4, 13] was 0.000 ± 0.001 and the “Mean OD550” value [4, 14] was 0.006 ± 0.002.
